What all share (type): cell-based
In assay [1] the test system is Escherichia coli β7334 Δdeo tdk cdd::Tn10 pSUTrc (dck allele: none). Particulars: strain β7334, dck allele none; 18 h 37° C., MS medium + IPTG. On the procedure:
(§1) The culture was then diluted 100 times in the same medium supplemented with IPTG and distributed on 96-well microplates in a final volume of 100 μl in a series of dilutions from to 2 to 2 nucleotide analogues. Each analogue was tested twice. After incubation for 18 hours at 37° C. with stirring, the MIC was determined as corresponding to the lowest analogue concentration for which no turbidity was detectable.
(§2) The toxicity of nucleoside analogues, deviating either by the sugar or by the base, was evaluated in strains of genotype Δdeo tdk cdd expressing on a plasmid the different dckH alleles, wild-type allele, D133E, R104Q and double mutant.
(§3) The minimum inhibitory concentrations, expressed in microM, were determined as indicated in the section Materials and Methods.

In assay [2] the test system is Escherichia coli β7338 Δdeo tdk cdd::Tn10 pSUDCK4 (dck:D133E-R104Q). Particulars: strain β7338, dck allele D133E R104Q; 18 h 37° C., MS medium + IPTG. On the procedure:
as §1, §2, §3

For assay [3], the system named is Escherichia coli β7342 Δdeo tdk cdd::Tn10 (dckH R104Q, amkG wt). The assay can be described thus: microbe, parasite or virus in culture. Particulars: strain β7342, dckH R104Q, amkG wt. On the procedure:
as §1
(§4) We jointly expressed, within the genetic context Δdeo tdk cdd each of the four alleles of dckH with each of the two wt and T39A alleles of amkG, and tested the toxicity of the different nucleoside analogues already tested previously (Table 4 below).
as §3

In assay [4] the test system is Escherichia coli β7339 Δdeo tdk cdd::Tn10 (dckH none, amkG wt). The assay can be described thus: microbe, parasite or virus in culture. Particulars: strain β7339, dckH none, amkG wt. The procedure:
as §1, §4, §3

The test system of assay [5] is Escherichia coli β7343 Δdeo tdk cdd::Tn10 (dckH D133E R104Q, amkG wt). The experiment in a line: microbe, parasite or virus in culture. Particulars: strain β7343, dckH D133E R104Q, amkG wt. On the procedure:
as §1, §4, §3

The test system of assay [6] is Escherichia coli β7348 Δdeo tdk cdd::Tn10 (dckH D133E R104Q, amkG T39A). The assay can be described thus: microbe, parasite or virus in culture. Particulars: strain β7348, dckH D133E R104Q, amkG T39A. The procedure:
as §1, §4, §3

The test system of assay [7] is Escherichia coli β7345 Δdeo tdk cdd::Tn10 (dckH wt, amkG T39A). The experiment in a line: microbe, parasite or virus in culture. Particulars: strain β7345, dckH wt, amkG T39A. On the procedure:
as §1, §4, §3

For assay [8], the system named is Escherichia coli β7340 Δdeo tdk cdd::Tn10 (dckH wt, amkG wt). The experiment in a line: microbe, parasite or virus in culture. Particulars: strain β7340, dckH wt, amkG wt. The procedure:
as §1, §4, §3

For assay [9], the system named is Escherichia coli β7346 Δdeo tdk cdd::Tn10 (dckH D133E, amkG T39A). The assay can be described thus: microbe, parasite or virus in culture. Particulars: strain β7346, dckH D133E, amkG T39A. On the procedure:
as §1, §4, §3

Assay [10] deals with Escherichia coli β7344 Δdeo tdk cdd::Tn10 (dckH none, amkG T39A). The experiment in a line: microbe, parasite or virus in culture. Particulars: strain β7344, dckH none, amkG T39A. On the procedure: as §1, §4, §3
Assay [11] deals with Escherichia coli β7341 Δdeo tdk cdd::Tn10 (dckH D133E, amkG wt). The experiment in a line: microbe, parasite or virus in culture. Particulars: strain β7341, dckH D133E, amkG wt. The procedure: as §1, §4, §3
For assay [12], the system named is Escherichia coli β7347 Δdeo tdk cdd::Tn10 (dckH R104Q, amkG T39A). The assay can be described thus: microbe, parasite or virus in culture. Particulars: strain β7347, dckH R104Q, amkG T39A. On the procedure:
as §1, §4, §3

Assay [13] relates to Escherichia coli strains of genotype Δdeo tdk cdd expressing the different dckH alleles. The assay can be described thus: MIC toxicity in strains Δdeo tdk cdd expressing any dckH allele. Particulars: whatever the DCK allele. On the procedure: as §1, §2
Assay [14] deals with Escherichia coli β7336 Δdeo tdk cdd::Tn10 pSUDCK2 (dck:D133E). Particulars: strain β7336, dck allele D133E; 18 h 37° C., MS medium + IPTG. The procedure: (§5) The culture was then diluted 100 times in the same medium supplemented with IPTG and distributed on 96-well microplates in a final volume of 100 μl in a series of dilutions from to 2 to 2 nucleotide analogues. Each analogue was tested twice.
as §2, §3

Assay [15] concerns Escherichia coli β7335 Δdeo tdk cdd::Tn10 pSUDCK1 (dck wt). Particulars: for minimum inhibitory concentration (MIC): strain β7335, dck allele wt, 18 h 37° C., MS medium + IPTG. The procedure:
as §5, §2, §3

The subject of assay [16] is Escherichia coli β7337 Δdeo tdk cdd::Tn10 pSUDCK3 (dck:R104Q). Particulars: strain β7337, dck allele R104Q; 18 h 37° C., MS medium + IPTG. The procedure: as §5, §2, §3

The structures appear in SMILES notation.

The source of these data is patent publication US7547513B2, “Mutants of deoxycytidine kinase having extended enzymatic activity” (priority 2001, dated 2009).

As a reminder, the MIC is the lowest concentration that inhibits growth of the organism. A high value points to a less susceptible organism. Consider `Nc1ncn([C@H]2C[C@H](O)[C@@H](CO)O2)c(=O)n1` [5-aza-dC, 5-aza-2′-deoxycitidine], for which the “minimum inhibitory concentration (MIC)” value in assay [1] was “> (no toxicity could be detected at the highest analogue concentration, 1.28 mM)”; in [2], 1.25 µM; in assay [3], “≦1.25 microM”; in assay [4] it was “> (no toxicity could be detected at the highest analogue concentration, 1280 microM)”; in [5], “≦1.25 microM”; in assay [6], “≦1.25 microM”. For the same compound, the “minimum inhibitory concentration (MIC)” value in assay [7] is “≦1.25 microM”; in assay [8], “≦1.25 microM”; in assay [9], “≦1.25 microM”; in assay [10] it was “> (no toxicity could be detected at the highest analogue concentration, 1280 microM)”; in assay [11], “≦1.25 microM”; in assay [12] it was “≦1.25 microM”. In assay [13], this compound showed a minimal inhibitory concentration (MIC) of less than 1.25 µM.
As to `Nc1ncnc2c1ncn2[C@H]1CC[C@@H](CO)O1` [ddA], the “minimum inhibitory concentration (MIC)” value in assay [14], in assay [15], in assay [16], in [1] and in assay [2] was 80 µM each time.
Take `Cc1cn([C@H]2C[C@H](N=[N+]=[N-])[C@@H](CO)O2)c(=O)[nH]c1=O` [AZT, 3′-azido-3′dexoythymidine]: the “minimum inhibitory concentration (MIC)” value in [14] was 640 µM; in assay [16], 640 µM; in [1] it was “> (no toxicity could be detected at the highest analogue concentration, 1.28 mM)”; in assay [2], 1280 µM; in assay [3] it was “> (no toxicity could be detected at the highest analogue concentration, 1280 microM)”; in [4] it was “> (no toxicity could be detected at the highest analogue concentration, 1280 microM)”. Further, the “minimum inhibitory concentration (MIC)” value in assay [5] is “> (no toxicity could be detected at the highest analogue concentration, 1280 microM)”; in assay [6] it was “> (no toxicity could be detected at the highest analogue concentration, 1280 microM)”; in assay [7], “> (no toxicity could be detected at the highest analogue concentration, 1280 microM)”; in assay [8], “> (no toxicity could be detected at the highest analogue concentration, 1280 microM)”; in assay [10], “> (no toxicity could be detected at the highest analogue concentration, 1280 microM)”; in assay [11], “> (no toxicity could be detected at the highest analogue concentration, 1280 microM)”. Also, the “minimum inhibitory concentration (MIC)” value in assay [12] was “> (no toxicity could be detected at the highest analogue concentration, 1280 microM)”. The “substrate of DCK wt (from toxicity tests of Table 3)” value in assay [15] (DCK wt) is listed as “not a substrate”.
For the compound `O=c1[nH]cnc2c1ncn2[C@H]1CC[C@@H](CO)O1` [ddI], the “minimum inhibitory concentration (MIC)” value was 40 µM in [14]; 40 µM in [15]; 20 µM in assay [16]; 80 µM in [1]; 40 µM in [2].
As to `Nc1ccn([C@@H]2O[C@H](CO)[C@@H](O)[C@@H]2O)c(=O)n1` [araC, arabinocytidine], the “minimum inhibitory concentration (MIC)” value was 20 µM in [14]; 160 µM in assay [15]; 20 µM in assay [16]; “> (no toxicity could be detected at the highest analogue concentration, 1.28 mM)” in assay [1]; 320 µM in assay [2].
